How the values were obtained:
[1] = prior-art NO-releasing small molecules; cited from earlier work

## O=C(CCCCCO[N+](=O)[O-])Oc1ccc(-c2coc3cc(OC(=O)CCCCCO[N+](=O)[O-])ccc3c2=O)cc1
other
  melting point: 100 to 102 °C

## CC(C)(SN=O)C(N)C(=O)O (racemic) [S-nitroso-D,L-penicillamine]
[1]
  lifetime in physiological solution: no more than about an hour

## N[C@@H](CSN=O)C(=O)O [S-nitrosocysteine]
[1]
  lifetime in physiological solution: no more than about an hour
